Data published in patent US20190337932A1, “PROCESS FOR PREPARATION OF DACLATASVIR AND SALTS” (Gienmark Pharmaceuticals Limited, priority 2016, published 2019).
Where a name gives a salt, the structure may show the parent alone. One block for each molecule: values may come before it.

Columns and labels:
Assay type in all cases: physicochemical
[1] = Physical stability on storing/drying at 50° C., 70° C., 100° C. (XRPD, Karl-Fisher)
Description: The physical stability of the daclatasvir dihydrochloride hydrate, of the present invention was determined by storing approximately 3.0 g of the sample a) at 50° C. b) at 70° C. c) at 100° C. The samples were tested by XRPD and Karl-Fisher titrator after 15 hours and 72 hours.

[2] = Transformation kinetics: slurrying in water at 25 to 30° C. for 24 hours, XRPD
Description: The study was carried out by slurrying 1 g of daclatasvir dihydrochloride hydrate of the present invention and literature Form N-2 of daclatasvir dihydrochloride, in water at 25 to 30° C. for 24 hours. The solid samples were then characterized by XRPD.

[3] = Dynamic vapor system sorption/desorption isotherms; conditions: 25° C., relative humidity of 40% to 90%
Description: Sorption/desorption isotherms were measured using the Dynamic vapor System. Measurement was carried out at 25° C. and Relative humidity of 40% to 90%.

[4] = Hygroscopicity at 25° C/60% and 40° C/75% relative humidity (description, water content by Karl Fischer); conditions: for hygroscopicity: conclusion of the study, Tables 4 and 5
Description: The study was carried out by subjecting 4 g of daclatasvir dihydrochloride hydrate of the present invention and literature Form N-2 of daclatasvir dihydrochloride to 25′C/60% relative humidity and 40′C/75% relative humidity. About 100 mg of sample was withdrawn each time at timely interval of 4, 12, 24 and 48 hours from the conditions is and tested for description and water content by Karl Fischer.

[5] = Solid state stability at accelerated stress conditions (40° C./75% relative humidity); conditions: 40° C./75% RH
Description: In one embodiment the present invention provides daclatasvir dihydrochloride hydrate, which has enhanced stability to heat and humidity. According to the present invention, the obtained daclatasvir dihydrochloride hydrate is subjected to accelerated stability at 40° C. and relative humidity (RH) 75%.
The solid state stability of the daclatasvir dihydrochloride hydrate was determined by storing approximately 3.0 g of the sample at accelerated stress conditions (40° C./75% relative humidity) for 15 days, 1 month, 3 months, 6 months. The samples were tested by XRPD and HPLC for final purity and degradation products.

[6] = Photostability, light of 4000 lux at 25° C. for 2 weeks
Description: This study was carried out in a photostability testing chamber by subjecting daclatasvir dihydrochloride hydrate of the present invention to irradiation with light of 4000 lux at 25° C. for 2 weeks and the samples were tested for XRPD and stability.

[7] = listed as literature form N-2, dihydrochloride

KF ([1]; Drying at 50° C. for 15 hours): 8.03%
KF ([1]; Drying at 50° C. for 72 hours): 8.12%
Key XRPD peaks after drying ([1]; Drying at 50° C., 70° C. (15 and 72 hours) and 100° C. (15 hours), one merged cell): There was no change in XRPD
KF ([1]; Drying at 70° C. for 15 hours): 8.03%
KF ([1]; Drying at 70° C. for 72 hours): 8.02%
KF ([1]; Drying at 100° C. for 15 hours): 8%
KF ([1]; Initial form): 7.99%
change in form ([1]; drying and humid conditions): no change in form
Adsorption desorption profile [3]: reversible
Description ([4]; 25° C./60% relative humidity, 4 hours): Creamish
Moisture content by KF ([4]; 25° C./60% relative humidity, 4 hours, dihydrochloride hydrate): 8.77%
Description ([4]; 25° C./60% relative humidity, 12 hours): Creamish
Moisture content by KF ([4]; 25° C./60% relative humidity, 12 hours, dihydrochloride hydrate): 8.86%
Description ([4]; 25° C./60% relative humidity, 24 hours): Creamish
Moisture content by KF ([4]; 25° C./60% relative humidity, 24 hours, dihydrochloride hydrate): 8.89%
Description ([4]; 25° C./60% relative humidity, 48 hours): Creamish
Moisture content by KF ([4]; 25° C./60% relative humidity, 48 hours, dihydrochloride hydrate): 8.91%
Description ([4]; 25° C./60% relative humidity, Initial): Creamish
Moisture content by KF ([4]; 25° C./60% relative humidity, Initial, dihydrochloride hydrate): 8.76%
Description ([4]; 40° C./75% relative humidity, 4 hours): Creamish
Moisture content by KF ([4]; 40° C./75% relative humidity, 4 hours, dihydrochloride hydrate): 8.76%
Description ([4]; 40° C./75% relative humidity, 12 hours): Creamish
Moisture content by KF ([4]; 40° C./75% relative humidity, 12 hours, dihydrochloride hydrate): 8.81%
Description ([4]; 40° C./75% relative humidity, 24 hours): Creamish
Moisture content by KF ([4]; 40° C./75% relative humidity, 24 hours, dihydrochloride hydrate): 8.86%
Description ([4]; 40° C./75% relative humidity, 48 hours): Creamish
Moisture content by KF ([4]; 40° C./75% relative humidity, 48 hours, dihydrochloride hydrate): 8.92%
Description ([4]; 40° C./75% relative humidity, Initial): Creamish
Moisture content by KF ([4]; 40° C./75% relative humidity, Initial, dihydrochloride hydrate): 8.76%
hygroscopicity ([4]; dihydrochloride hydrate): non-hygroscopic
HPLC Purity (%) ([5]; after 1 month): 99.9%
XRPD ([5]; after 1 month): Same as initial
HPLC Purity (%) ([5]; after 3 months): 99.89%
XRPD ([5]; after 3 months): Same as initial
HPLC Purity (%) ([5]; after 6 months): 99.88%
XRPD ([5]; after 6 months): Same as initial
HPLC Purity (%) ([5]; after 15 days): 99.9%
XRPD ([5]; after 15 days): Same as initial
chemical and physical stability ([5]; accelerated stability): chemically and physically very stable
degradation in HPLC ([5]; accelerated stability): no degradation
increase in the moisture content ([5]; accelerated stability): no substantial increase
XRPD pattern ([5]; accelerated stability, dihydrochloride hydrate): remains the same as initial
XRPD pattern [6]: remains same as initial
degradation in HPLC [6]: no degradation
Structure (SMILES): COC(=O)N[C@H](C(=O)N1CCC[C@H]1c1ncc(-c2ccc(-c3ccc(-c4cnc([C@@H]5CCCN5C(=O)[C@@H](NC(=O)OC)C(C)C)[nH]4)cc3)cc2)[nH]1)C(C)C [daclatasvir dihydrochloride hydrate]
Result (form by XRPD) ([2]; dihydrochloride hydrate): No discernible form conversion or dissociation

Result (form by XRPD) ([2]; listed as Form-N2, dihydrochloride): Converted to crystalline daclatasvir
Moisture content by KF ([4]; 25° C./60% relative humidity, 4 hours, dihydrochloride): 2.45%
Moisture content by KF ([4]; 25° C./60% relative humidity, 12 hours, dihydrochloride): 2.47%
Moisture content by KF ([4]; 25° C./60% relative humidity, 24 hours, dihydrochloride): 2.44%
Moisture content by KF ([4]; 25° C./60% relative humidity, 48 hours, dihydrochloride): 2.47%
Moisture content by KF ([4]; 25° C./60% relative humidity, Initial, dihydrochloride): 2.12%
Moisture content by KF ([4]; 40° C./75% relative humidity, 4 hours, dihydrochloride): 2.52%
Moisture content by KF ([4]; 40° C./75% relative humidity, 12 hours, dihydrochloride): 2.54%
Moisture content by KF ([4]; 40° C./75% relative humidity, 24 hours, dihydrochloride): 2.65%
Moisture content by KF ([4]; 40° C./75% relative humidity, 48 hours, dihydrochloride): 2.77%
Moisture content by KF ([4]; 40° C./75% relative humidity, Initial, dihydrochloride): 2.12%
Structure (SMILES): COC(=O)N[C@H](C(=O)N1CCC[C@H]1c1ncc(-c2ccc(-c3ccc(-c4cnc([C@@H]5CCCN5C(=O)[C@@H](NC(=O)OC)C(C)C)[nH]4)cc3)cc2)[nH]1)C(C)C [daclatasvir dihydrochloride, reference compound]
Result (form by XRPD) [2, 7]: did not retain its form and was converted to the daclatasvir dihydrochloride hydrate of the present invention
hygroscopicity [4, 7]: more hygroscopic than the form of the present invention
